The source of these data is patent publication US7282512B2, “Cycloalkyl ketoamides derivatives useful as cathepsin K inhibitors” (SmithKline Beecham Corporation, priority 2002, dated 2007).

SMILES strings stand for the structures. Like-named read-outs stand apart in the source and are kept apart here.

Common to all, as to format: biochemical
One experiment has as its target human cathepsin B (Homo sapiens, UniProt P07858). Put plainly: cathepsin B inhibition assay, fluorogenic substrate Cbz-Phe-Arg-AMC. To be noted: Table 2; enzyme from human liver tissue, 10 μM substrate; read-out: hCat B Ki. Here is the method: (§1) All assays for cathepsin K were carried out with human and rat recombinant enzyme. Assays for cathepsins S & V were also carried out with human recombinant enzyme. Assays for human cathepsins B, H, and L were carried out with enzyme, purchased from Athens Research and Technology, Inc., prepared from human liver tissue. Standard assay conditions for the determination of kinetic constants used a fluorogenic peptide substrate, typically (5S,8S)-13-amino-5-benzyl-13-imino-3-methylene-N-(4-methyl-2-oxo-2H-chromen-7-yl)-6-oxo-1-phenyl-2-oxa-4,7,12-triazatridecane-8-carboxamide (Cbz-Phe-Arg-AMC), and were determined in 100 mM sodium acetate at pH 5.5 containing 10 mM dithiothreitol and 120 mM sodium chloride. A stock substrate solution of Cbz-Phe-Arg-AMC was prepared at a concentration of 50 mM in dimethyl sulfoxide. This substrate was diluted into the assay for a final substrate concentration of 10 μM in the rat cathepsin K, human cathepsin K, and human cathepsin B assays; a final substrate concentration of 5 μM in the human cathepsin L assay; and a final substrate concentration of 2 μM in the human cathepsin V assay.
(§2) All assays contained 10% dimethyl sulfoxide. […] All assays were conducted at 30° C. Product fluorescence (excitation at 360 nm; emission at 440 nm, (except cathepsin H which used excitation at 340 nm; emission at 420 nm)) was monitored with a PerSeptive Biosystems Cytofluor II fluorescence plate reader. Product progress curves were generated over 2.3 h monitoring the formation of 7-amino-4-methylcoumarin product (or β-naphthalamide for cathepsin H).
(§3) Potential inhibitors were evaluated using the progress curve method. […] For those compounds whose progress curves were linear, the enzymatic activity (RATE) was plotted against the concentration of test compound, including inhibitor concentration of zero ([I]=0), and the IC50 determined from a fit of equation 1 to the data, RATE=Vmax/(1+([I]/IC50)) (1) where Vmax is the best fit estimate of the maximal enzymatic activity. Ki values were calculated from IC50 values using equation 2 assuming a competitive model.

For the next experiment, the target named is human cathepsin L (Homo sapiens, UniProt P07711). Put plainly: cathepsin L inhibition assay, fluorogenic substrate Cbz-Phe-Arg-AMC. The conditions noted are these: Table 2; enzyme from human liver tissue, 5 μM substrate; read-out: hCat L Ki. How it is done: as §1, §2, §3
Another experiment has as its target T1, human cathepsin K (Homo sapiens, UniProt P43235).
T1 construct: The proform of cathepsin K was converted to mature cathepsin K by brief exposure to pH 4; made in house; host or cells: baculovirus; Trichoplusia ni High Five cells (virus raised in Sf-9)
T1 sequence (P43235 115-329): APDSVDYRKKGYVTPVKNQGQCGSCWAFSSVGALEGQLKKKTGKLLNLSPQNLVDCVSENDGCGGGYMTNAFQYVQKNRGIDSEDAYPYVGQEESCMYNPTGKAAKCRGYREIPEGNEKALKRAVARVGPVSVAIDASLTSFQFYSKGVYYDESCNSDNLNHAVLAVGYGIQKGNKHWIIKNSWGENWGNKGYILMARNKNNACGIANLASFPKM
Put plainly: cathepsin K inhibition assay, fluorogenic substrate Cbz-Phe-Arg-AMC, progress curve method. To be noted: human recombinant enzyme, 10 μM substrate. How it is done: as §1, with “Standard assay conditions for the determination of kinetic constants used a fluorogenic peptide substrate, typically (5S,8S)-13-amino-5-benzyl-13-imino-3-methylene-N-(4-methyl-2-oxo-2H-chromen-7-yl)-6-oxo-1-phenyl-2-oxa-4,7,12-triazatridecane-8-carboxamide (Cbz-Phe-Arg-AMC), and were determined in 100 mM sodium acetate at pH 5.5 containing 10 mM dithiothreitol and 120 mM sodium chloride.” left out
as §2
Two liters of Spodoptera frugiperda (Sf-9) cells (ATCC) were grown in Grace's Supplemented medium (Life Technologies) supplemented with 2 g/L glucose, 10% fetal bovine serum (HyClone) and 0.1% pluronic F-68 (Life Technologies). […] The cells continued to grow for 72 h post-infection, before the virus was harvested by centrifugation at 1400×g for 30 min.
One and one-half liters of Trichoplusia ni (T. ni) High Five (™) cells [JRH Biosciences, Woodland, Calif. […] Media were separated from cells at a rate of 1 L/min using the Centritech 100 (™) continuous-flow centrifuge (DuPont) operating at 200×g.
Protein Purification: Media (human and rat) were filtered through a Whatman 3 filter, and then loaded onto a 25 mL Poros HS II (26 mm×47 mm) cation exchange column equilibrated in 25 mM sodium acetate at pH 5.5 (equilibration buffer). The column was washed until the absorbance reached the baseline value, and then the protein was eluted with a linear gradient from 0-2 M sodium chloride in the equilibration buffer. Column fractions were analyzed by SDS-PAGE, N-terminal sequencing, and mass spectrometry. Fractions containing the proform of cathepsin K were pooled and frozen at −80° C. The proform was concentrated in an Amicon Centriprep 10 and fractionated with a Superdex 75 column (26 mm×600 mm, Pharmacia) equilibrated in 400 mM sodium chloride, 25 mM sodium acetate at pH 5.5.
Cathepsin K Activation: The proform of cathepsin K was converted to mature cathepsin K by brief exposure to pH 4 in the presence of 5 mM L-cysteine. Typically, 5 mM L-cysteine was added to 10 mL of approximately 1 mg/mL procathepsin K. One mL of this solution was diluted ten-fold into 450 mM sodium acetate at pH 4.0 containing 5 mM L-cysteine. This solution was reacted at 23° C. for 2 min before neutralization with 2 mL 1.8 M sodium acetate at pH 6.0. The neutralized sample was added to the remaining 9 mL of procathepsin K. The mixture was incubated at 4° C. for 2-3 days. The activated cathepsin K was chromatographed on a Poros HS II column as described above.
Potential inhibitors were evaluated using the progress curve method. Assays were carried out in the presence of variable concentrations of test compound. Reactions were initiated by addition of buffered solutions of inhibitor and substrate to enzyme. Data analysis was conducted according to one of two procedures depending on the appearance of the progress curves in the presence of inhibitors. […] Ki values were calculated from IC50 values using equation 2 assuming a competitive model.

[1] abbreviates: Table 1, pH 5.5, 30° C., read-out: hcatK Ki.

human cathepsin L, sequence (P07711 114-288 limits assumed): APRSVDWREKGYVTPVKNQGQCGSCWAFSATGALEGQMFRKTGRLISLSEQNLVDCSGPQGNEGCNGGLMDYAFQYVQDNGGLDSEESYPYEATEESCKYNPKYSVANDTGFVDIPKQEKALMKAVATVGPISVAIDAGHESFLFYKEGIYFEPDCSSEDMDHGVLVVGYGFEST
human cathepsin L, sequence (P07711 292-333 limits assumed): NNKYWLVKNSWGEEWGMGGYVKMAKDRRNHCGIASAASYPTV

On to `CCCC[C@H](NC(=O)OC1(Cc2ccccc2)CCCC1)C(=O)C(=O)N[C@@H](C)C(=O)OCc1ccccc1` [Example 3, Benzyl (2S)-2-{[(3S)-3-({[(1-benzylcyclopentyl)oxy]carbonyl}amino)-2-oxoheptanoyl]amino}propanoate], for which the Ki (in general, the dissociation constant of the complex between target and ligand, obtained from inhibition or displacement) on human cathepsin B is > 1000 nM; at human cathepsin L, > 1000 nM; at human cathepsin K (setting [1]) it was 10 to 100 nM; at human cathepsin K (Table 2, read-out: hCat K Ki), 10 to 100 nM.
On to `CCCC[C@H](NC(=O)OCC1(Cc2ccc(F)cc2)CCC1)C(=O)C(=O)Nc1n[nH]c2cc(Cl)ccc12` [Example 15, [1-(4-fluorobenzyl)cyclobutyl]methyl(1S)-1-[[(6-chloro-1H-indazol-3-yl)amino](oxo)acetyl]pentylcarbamate], for which the Ki at human cathepsin B was 100 to 1000 nM; on human cathepsin L, 10 to 100 nM; at human cathepsin K (setting [1]) it was < 1 nM; on human cathepsin K (Table 2, read-out: hCat K Ki), < 1 nM.
On to `CCCC[C@H](NC(=O)OC1(c2nc3ccccc3s2)CCCC1)C(=O)C(=O)Nc1ccn[nH]1` [Example 17, 1-(1,3-Benzothiazol-2-yl)cyclopentyl(1S)-1-[oxo(1H-pyrazol-3-ylamino)acetyl]pentylcarbamate], for which the Ki on human cathepsin B is > 1000 nM; at human cathepsin L, 10 to 100 nM; at human cathepsin K (setting [1]), 1 to 10 nM; on human cathepsin K (Table 2, read-out: hCat K Ki), 1 to 10 nM.
